For this test, the target named is T1, hα4 and β1 integrins (VLA-4) (Homo sapiens, UniProt P05556+P13612).
T1 construct: expressed in transfected cells; host or cells: CHO cells
T1 sequence (P13612 34-1032): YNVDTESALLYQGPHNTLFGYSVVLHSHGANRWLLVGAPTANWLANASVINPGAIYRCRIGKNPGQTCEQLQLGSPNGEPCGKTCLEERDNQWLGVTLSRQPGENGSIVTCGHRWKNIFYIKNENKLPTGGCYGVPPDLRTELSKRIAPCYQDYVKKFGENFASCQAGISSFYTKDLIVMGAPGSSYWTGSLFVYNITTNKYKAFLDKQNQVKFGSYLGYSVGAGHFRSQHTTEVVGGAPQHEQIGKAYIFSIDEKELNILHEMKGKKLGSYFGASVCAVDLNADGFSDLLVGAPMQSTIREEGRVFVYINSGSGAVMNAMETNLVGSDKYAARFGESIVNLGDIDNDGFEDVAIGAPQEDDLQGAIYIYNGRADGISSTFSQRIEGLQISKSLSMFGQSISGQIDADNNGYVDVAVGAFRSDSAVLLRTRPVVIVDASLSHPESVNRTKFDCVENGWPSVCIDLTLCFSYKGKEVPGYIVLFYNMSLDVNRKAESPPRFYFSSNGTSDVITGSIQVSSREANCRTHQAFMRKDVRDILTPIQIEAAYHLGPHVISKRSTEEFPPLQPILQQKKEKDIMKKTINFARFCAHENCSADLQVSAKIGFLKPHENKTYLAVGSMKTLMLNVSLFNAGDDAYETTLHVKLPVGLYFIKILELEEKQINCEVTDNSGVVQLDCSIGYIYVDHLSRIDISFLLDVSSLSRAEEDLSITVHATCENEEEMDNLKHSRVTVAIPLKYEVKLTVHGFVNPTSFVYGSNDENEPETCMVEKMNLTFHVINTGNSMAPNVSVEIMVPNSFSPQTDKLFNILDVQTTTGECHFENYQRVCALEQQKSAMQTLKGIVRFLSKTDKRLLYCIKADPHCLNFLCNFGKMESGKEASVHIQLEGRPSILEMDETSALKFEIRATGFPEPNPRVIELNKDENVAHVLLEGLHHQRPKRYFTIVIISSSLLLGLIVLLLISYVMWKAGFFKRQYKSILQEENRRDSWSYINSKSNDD
T1 sequence (P05556 21-798): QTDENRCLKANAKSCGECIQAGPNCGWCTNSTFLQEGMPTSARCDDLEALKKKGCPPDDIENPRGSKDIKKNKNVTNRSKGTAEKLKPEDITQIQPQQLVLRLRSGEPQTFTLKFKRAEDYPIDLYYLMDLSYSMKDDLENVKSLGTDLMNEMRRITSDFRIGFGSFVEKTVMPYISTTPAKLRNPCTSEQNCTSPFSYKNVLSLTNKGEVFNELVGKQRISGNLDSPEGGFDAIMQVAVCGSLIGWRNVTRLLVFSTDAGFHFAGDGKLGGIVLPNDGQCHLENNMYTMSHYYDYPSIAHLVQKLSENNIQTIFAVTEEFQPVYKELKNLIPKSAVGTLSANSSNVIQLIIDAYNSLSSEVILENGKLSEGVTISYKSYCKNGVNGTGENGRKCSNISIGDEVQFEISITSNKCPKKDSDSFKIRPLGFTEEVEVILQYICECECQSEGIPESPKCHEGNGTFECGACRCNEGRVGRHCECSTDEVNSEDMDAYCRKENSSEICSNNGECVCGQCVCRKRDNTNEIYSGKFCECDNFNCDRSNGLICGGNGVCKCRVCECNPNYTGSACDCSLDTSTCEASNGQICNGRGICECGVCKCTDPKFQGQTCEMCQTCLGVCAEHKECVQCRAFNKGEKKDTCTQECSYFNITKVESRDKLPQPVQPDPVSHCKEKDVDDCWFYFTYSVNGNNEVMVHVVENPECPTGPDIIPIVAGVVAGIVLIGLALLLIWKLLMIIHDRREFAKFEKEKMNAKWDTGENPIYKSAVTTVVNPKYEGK
Description: In vitro evaluation: inhibition of binding of CHO cells expressing hα4 and β1 integrins to Eu3+-hVCAM-1 D1D7-IgG. The following applies: ligand Eu3+-hVCAM-1 D1D7-IgG 2 nM, Ki calculated from IC50. As for the experimental part:
CHO cells which were forced to be expressed by transduction of hα4 and β1 integrins are seeded (3×10^4 cells/100 μl/well) on a Costar 3599 plate, and cultured for 2 days. A medium is washed with a buffer A* two times, and Eu^3+-hVCAM-1 D1D7-IgG which was diluted with an assay buffer A** to 2 nM is added at 50 μl/well. A test substance which was diluted with 2% DMSO-assay buffer (in the presence or the absence of 6% human serum albumin) is added at 50 μl/well (A solution which was separately diluted is added to a well in which Scatchard analysis is performed), this is stirred with a plate mixer for 5 minutes, and allowed to stand at room temperature for 1 hour. Thereafter, this is washed with a buffer A four times, a potentiating reagent (manufactured by DELFIA) is added at 100 μl/well, this is shaken for 5 minutes using a plate mixer, and a fluorescence intensity is measured with a time-resolved fluorometer (DELFIA Wallac). IC50 (concentration at which binding of CHO cell and Eu^3+-hVCAM-1 D1D7-IgG is inhibited by 50%) of a test substance is obtained from an integration rate obtained from a calculation equation: [(FT−FNS)−(FI−FNS)]/[(FT−FNS)]×100, wherein FT indicates a fluorescence intensity of a well not containing a test substance, FNS indicates a fluorescence intensity of a well not containing a test substance and hVCAM-1 D1D7-IgG, and FI indicates a fluorescence intensity containing a test substance. A Kd value showing strength of binding and Bmax (maximum binding amount) were presumed in a range of 0.06 to 20 nM according to the Scachard analysis method. [formula]
A Ki value was calculated according to the above equation ([L] is ligand concentration)
[* buffer A: 25 mM HEPES (pH 7.5), 150 mM NaCl, 1 mM Ca^2+, 1 mM Mg^2+, 4 mM Mn^2+; ** assay buffer: 25 mM HEPES (pH 7.5), 150 mM NaCl, 1 mM Ca^2+, 1 mM Mg^2+, 4 mM Mn^2+, 0.1% BSA, 20 μM DTPA, with/without 6% ALBUMIN, HUMAN SERUM (C/NA-1653, SIGMA)]
Take `Cn1cc(C(=O)Nc2cc(Cl)c(CC(=O)N3C[C@@H](Oc4cccnc4)C[C@H]3c3ncc(CCC(=O)O)s3)cc2Cl)c2ccccc21` [Example 44, 3-[2-[1-[2,5-Dichloro-4-(1-methyl-3-indolylcarbonylamino)phenylacetyl]-(4S)-(3-pyridyloxy)-(2S)-pyrrolidinyl]-5-thiazolyl]propionic acid]: the Ki (usually a measure of affinity in units of concentration, obtained from inhibition or displacement) is 3.9 nM.

Regarding `Cn1cc(C(=O)Nc2cc(F)c(CC(=O)N3C[C@@H](F)C[C@H]3c3ncc(CCC(=O)O)s3)cc2Cl)c2ccccc21` [Example 19, 3-[2-[1-[5-Chloro-2-fluoro-4-(1-methyl-3-indolylcarbonyl)aminophenylacetyl]-(4S)-fluoro-(2S)-pyrrolidinyl]-5-thiazolyl]propionic acid], the inhibition constant Ki was 0.94 nM. As for `CCO[C@H]1CCN(C(=O)Cc2cc(Cl)c(Nc3nc4ccccc4s3)cc2Cl)[C@@H]1c1ncc(CCC(=O)O)s1` [Example 115, 3-[2-[1-[4-(2-Benzothiazolyl)amino-2,5-dichlorophenyl]acetyl-(3S)-ethoxy-(2S)-pyrrolidinyl]-5-thiazolyl]propionic acid], the Ki was 8.4 nM.

In the case of `Cn1cc(C(=O)Nc2cc(F)c(CC(=O)N3C[C@@H](OC4CCC4)C[C@H]3c3ncc(CCC(=O)O)s3)cc2Cl)c2ccccc21` [Example 40, 3-[2-[1-[5-Chloro-2-fluoro-4-(1-methyl-3-indolylcarbonyl)aminophenylacetyl]-(4S)-cyclobutoxy-(2S)-pyrrolidinyl]-5-thiazolyl]propionic acid], the Ki is 4 nM. As to `CCO[C@H]1CCN(C(=O)Cc2cc(Cl)c(NC(=O)c3csc4ccccc34)cc2F)[C@@H]1c1ncc(CCC(=O)O)s1` [Example 93], the Ki is 2.9 nM. On to `CCO[C@H]1CCN(C(=O)Cc2cc(Cl)c(NC(=O)c3cn(C)c4ccccc34)cc2Cl)[C@@H]1c1ncc(CCC(=O)O)o1` [Example 98, 3-[2-[1-[[2,5-Dichloro-4-(1-methyl-3-indolylcarbonylamino)phenyl]acetyl]-(3S)-ethoxy-(2S)-pyrrolidinyl]-5-oxazolyl]propionic acid], for which the Ki was 11 nM. Consider `CO[C@H]1C[C@@H](c2ncc(CCC(=O)O)o2)N(C(=O)Cc2cc(Cl)c(NC(=O)c3csc4ccccc34)cc2F)C1` [Example 15, 3-[2-[1-[[4-[(3-Benzo[b]thienylcarbonyl)amino]-5-chloro-2-fluorophenyl]acetyl]-(4S)-methoxy-(2S)-pyrrolidinyl]-5-oxazolyl]propionic acid], for which the Ki is 4.5 nM.

`Cn1cc(C(=O)Nc2cc(Cl)c(CC(=O)N3C[C@@H](OC4CCC4)C[C@H]3c3ncc(CCC(=O)O)s3)cc2Cl)c2ccccc21` [Example 39, 3-[2-[1-[2,5-Dichloro-4-(1-methyl-3-indolylcarbonylamino)phenylacetyl]-(4S)-cyclobutoxy-(2S)-pyrrolidinyl]-5-thiazolyl]propionic acid]: the Ki is 6.3 nM.

Take `CO[C@H]1C[C@@H](c2ncc(CCC(=O)O)s2)N(C(=O)Cc2cc(Cl)c(NC(=O)c3coc4ccccc34)cc2F)C1` [Example 6, 3-[2-[1-[4-[(1-Benzofuran-3-ylcarbonyl)amino]-5-chloro-2-fluorophenylacetyl]-(4S)-methoxy-(2S)-pyrrolidinyl]-5-thiazolyl]propionic acid]: the Ki was 0.4 nM. In the case of `CCO[C@H]1CCN(C(=O)Cc2cc(Cl)c(NC(=O)c3coc4ccccc34)cc2Cl)[C@@H]1c1ncc(CCC(=O)O)s1` [Example 96], the Ki was 6.4 nM.

Turning to `CO[C@H]1C[C@@H](c2ncc(CCC(=O)O)s2)N(C(=O)Cc2cc(Cl)c(NC(=O)c3csc4ccccc34)cc2Cl)C1` [Example 3, 3-[2-[1-[[4-[(3-Benzo[b]thienylcarbonyl)amino]-2,5-dichlorophenyl]acetyl]-(4S)-methoxy-(2S)-pyrrolidinyl]-5-thiazolyl]propionic acid], the Ki was 0.58 nM. As for `CCO[C@H]1CCN(C(=O)Cc2cc(Cl)c(NC(=O)c3cn(C)c4ccccc34)cc2F)[C@@H]1c1ncc(CCC(=O)O)o1` [Example 97, 3-[2-[1-[[5-Chloro-2-fluoro-4-(1-methyl-3-indolylcarbonylamino)phenyl]acetyl]-(3S)-ethoxy-(2S)-pyrrolidinyl]-5-oxazolyl]propionic acid], the Ki was 9.2 nM. On to `O=C(O)CCc1cnc([C@@H]2[C@@H](O)CCN2C(=O)Cc2cc(Cl)c(NC(=O)c3csc4ccccc34)cc2F)s1` [Example 122], for which the Ki is 1.6 nM.

On to `COC[C@@H]1CC[C@@H](c2ncc(CCC(=O)O)s2)N1C(=O)Cc1cc(Cl)c(NC(=O)c2coc3ccccc23)cc1F` [Example 56, 3-[2-[1-[4-[(1-Benzofuran-3-ylcarbonyl)amino]-5-chloro-2-fluorophenylacetyl]-(5S)-methoxymethyl-(2S)-pyrrolidinyl]-5-thiazolyl]propionic acid], for which the Ki is 66 nM. With `CO[C@H]1C[C@@H](c2cc(CCC(=O)O)on2)N(C(=O)Cc2cc(Cl)c(NC(=O)c3csc4ccccc34)cc2Cl)C1` [Example 32, 3-[3-[1-[[4-[(3-Benzo[b]thienylcarbonyl)amino]-2,5-dichlorophenyl]acetyl]-(4S)-methoxy-(2S)-pyrrolidinyl]-5-isoxazolyl]propionic acid] the figure was 2.1 nM; with `CO[C@@H]1C[C@@H](c2ncc(CCC(=O)O)s2)N(C(=O)Cc2cc(Cl)c(Nc3nc4ccccc4s3)cc2Cl)C1` [Example 125], 11 nM. `O=C(O)CCc1cnc([C@@H]2[C@@H](O)CCN2C(=O)Cc2cc(Cl)c(Nc3nc4ccccc4o3)cc2F)s1` [Example 117, 3-[2-[1-[4-(2-Benzoxazolyl)amino-5-chloro-2-fluorophenyl]acetyl-(3S)-hydroxy-(2S)-pyrrolidinyl]-5-thiazolyl]propionic acid]: the Ki was 35 nM. With `O=C(O)CCc1cnc([C@@H]2[C@@H](O)CCN2C(=O)Cc2cc(Cl)c(NC(=O)c3csc4ccccc34)cc2Cl)s1` [Example 123], the Ki is 3.5 nM. For `CON(C)[C@H]1C[C@@H](c2ncc(CCC(=O)O)s2)N(C(=O)Cc2cc(Cl)c(NC(=O)c3coc4ccccc34)cc2F)C1` [Example 131, 3-[2-[1-[4-(3-Benzo[b]furanylcarbonylamino)-5-chloro-2-fluorophenylacetyl]-(4S)—N,O-dimethylhydroxylamino-(2S)-pyrrolidinyl]-5-thiazolyl]propionic acid], the Ki was 5.9 nM. Regarding `CON(C)[C@H]1C[C@@H](c2ncc(CCC(=O)O)s2)N(C(=O)Cc2cc(Cl)c(NC(=O)c3csc4ccccc34)cc2Cl)C1` [Example 130, 3-[2-[1-[4-(3-Benzo[b]thiophenylcarbonylamino)-2,5-dichlorophenylacetyl]-(4S)—N,O-dimethylhydroxylamino-(2S)-pyrrolidinyl]-5-thiazolyl]propionic acid], the Ki is 3.5 nM. Then `O=C(O)CCc1cnc([C@@H]2C[C@H](OC3CCC3)CN2C(=O)Cc2cc(Cl)c(NC(=O)c3csc4ccccc34)cc2F)s1` [Example 41], with 2.2 nM; and `O=C(O)CCc1cnc([C@@H]2C[C@@H]3CCCC[C@@H]3N2C(=O)Cc2cc(Cl)c(NC(=O)c3csc4ccccc34)cc2F)s1` [Example 61, 3-[2-[1-[4-[(3-Benzo[b]thienylcarbonyl)amino]-5-chloro-2-fluorophenylacetyl]-(2S)-octahydroindolyl]-5-thiazolyl]propionic acid], with 6 nM; and `CON(C)[C@H]1C[C@@H](c2ncc(CCC(=O)O)s2)N(C(=O)Cc2cc(Cl)c(NC(=O)c3cn(C)c4ccccc34)cc2Cl)C1` [Example 128, 3-[3-[1-[2,5-Dichloro-4-(1-methyl-3-indolylcarbonylamino)phenylacetyl]-(4S)—N,O-dimethylhydroxylamino-(2S)-pyrrolidinyl]-5-thiazolyl]propionic acid], with 6.7 nM. For `Cn1cc(C(=O)Nc2cc(Cl)c(CC(=O)N3C[C@@H](F)C[C@H]3c3ncc(CCC(=O)O)s3)cc2Cl)c2ccccc21` [Example 18, 3-[2-[1-[2,5-Dichloro-4-(1-methyl-3-indolylcarbonylamino)phenylacetyl]-(4S)-fluoro-(2S)-pyrrolidinyl]-5-thiazolyl]propionic acid], the Ki is 1.1 nM. Consider `COc1ccc(F)cc1Nc1nc2ccc(CC(=O)N3C[C@@H](OC)C[C@H]3c3ncc(CCC(=O)O)s3)c(F)c2o1` [Example 9, 3-[2-[1-[[7-Fluoro-2-(5-fluoro-2-methoxyphenylamino)-1,3-benzoxazol-6-yl]acetyl]-(4S)-methoxy-(2S)-pyrrolidinyl]-5-thiazolyl]propionic acid], for which the Ki is 0.96 nM.
